The target in data set [1] is T1, DYRK3 (Homo sapiens, UniProt O43781).
T1 sequence (O43781 1-588): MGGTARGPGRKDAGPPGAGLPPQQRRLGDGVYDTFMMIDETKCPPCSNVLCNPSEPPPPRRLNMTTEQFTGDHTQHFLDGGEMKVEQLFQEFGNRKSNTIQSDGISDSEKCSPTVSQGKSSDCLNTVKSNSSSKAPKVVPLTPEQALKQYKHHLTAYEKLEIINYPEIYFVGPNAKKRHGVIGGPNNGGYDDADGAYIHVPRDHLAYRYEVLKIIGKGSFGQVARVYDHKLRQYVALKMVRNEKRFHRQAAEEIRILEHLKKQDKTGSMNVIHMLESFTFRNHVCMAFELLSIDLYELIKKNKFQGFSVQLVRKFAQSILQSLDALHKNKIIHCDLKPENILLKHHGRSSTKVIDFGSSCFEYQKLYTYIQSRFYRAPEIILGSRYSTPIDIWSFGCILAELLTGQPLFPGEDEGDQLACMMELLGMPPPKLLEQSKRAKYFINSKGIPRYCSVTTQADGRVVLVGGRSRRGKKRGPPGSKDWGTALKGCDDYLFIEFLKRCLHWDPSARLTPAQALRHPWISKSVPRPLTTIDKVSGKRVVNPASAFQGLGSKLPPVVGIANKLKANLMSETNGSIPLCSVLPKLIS
The data set can be described thus: Protein kinase assay ([γ-33P]-ATP, RS peptide substrate), DYRK3. In kind it is biochemical. The following applies: 10 µM compound; read-out: Inhibition at 10 µM DYRK3 (class symbol). As to the method: (§1) DYRK1A, 1B, 2, 3 (human, recombinant, expressed in E. coli as GST fusion proteins) and CLK1, 2, 3, and 4 (mouse, recombinant, expressed in E. coli as GST fusion proteins) were assayed as described for GSK-3 in Buffer A (supplemented extemporaneously with 0.15 mg BSA/mL + 1 mM DTT) with 1 µg of RS peptide ([…]) as a substrate.

In data set [2] the target is T2, DYRK1A (Homo sapiens, UniProt Q13627). The data set can be described thus: Protein kinase assay ([γ-33P]-ATP, RS peptide substrate), DYRK1A. The data set is classed as biochemical. Particulars: 15 µM ATP; read-out: IC50 DYRK 1A.
Data set [3] concerns DYRK1A (phosphorylation of T434 in SF3B1) in HeLa cells. The data set can be described thus: Inhibition of endogenous DYRK1A activity in HeLa cells (phosphorylation of T434 in GFP-SF3B1-NT, Western blot). In kind it is cell-based. The following applies: Homo sapiens; HeLa cells expressing GFP-SF3B1-NT, 18 h; read-out: IC50 inhibition of endogenous DYRK1A activity in HeLa cells (pT434 SF3B1). A general note: A western blot detects proteins with antibodies after separation by electrophoresis.

Data set [4] deals with T3, DYRK2 (Homo sapiens, UniProt Q92630).
T3 sequence (Q92630 1-601): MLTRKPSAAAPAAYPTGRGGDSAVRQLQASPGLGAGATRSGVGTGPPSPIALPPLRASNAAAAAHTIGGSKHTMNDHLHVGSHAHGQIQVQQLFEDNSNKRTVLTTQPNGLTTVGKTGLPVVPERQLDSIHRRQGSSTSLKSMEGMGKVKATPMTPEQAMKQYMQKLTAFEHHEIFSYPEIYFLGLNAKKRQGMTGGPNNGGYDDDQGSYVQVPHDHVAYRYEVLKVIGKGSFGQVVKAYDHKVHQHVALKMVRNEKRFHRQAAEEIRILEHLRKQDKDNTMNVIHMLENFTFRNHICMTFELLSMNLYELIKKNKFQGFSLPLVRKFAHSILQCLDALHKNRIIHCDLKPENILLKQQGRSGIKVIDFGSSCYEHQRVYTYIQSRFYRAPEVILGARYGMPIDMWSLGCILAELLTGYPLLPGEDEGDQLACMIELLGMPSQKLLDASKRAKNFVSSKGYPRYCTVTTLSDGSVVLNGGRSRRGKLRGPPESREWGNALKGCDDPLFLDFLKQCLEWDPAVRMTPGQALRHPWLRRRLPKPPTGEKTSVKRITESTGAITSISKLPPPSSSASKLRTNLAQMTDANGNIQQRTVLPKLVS
The data set can be described thus: Protein kinase assay ([γ-33P]-ATP, RS peptide substrate), DYRK2. Particulars: 10 µM compound; read-out: Inhibition at 10 µM DYRK2 (class symbol). The data set is classed as biochemical. As to the method: as §1

Data set [5] is described as follows: Thermodynamic solubility, shake-flask method with HPLC quantification. The data set is classed as physicochemical. The following applies: phosphate buffer pH 7.4, 25 °C. As to the method:
For solubility assays an aqueous phosphate buffer pH 7.4 was used. The buffer was prepared by dissolving Na2HPO4 × 2 H2O (298 mg), KH2PO4 (19 mg) and NaCl (800 mg) in water (100 mL). The pH was adjusted to 7.4 by addition of hydrochloric acid. The thermodynamic solubility was determined using a shake-flask method with quantification by a HPLC method. The test compounds (500 µg) were incubated with aqueous phosphate buffer pH 7.4 (400 µL) in sealed Whatman MiniUniPrep vials (GE Healthcare, Freiburg, Germany). The mixtures were shaken at 25 °C and 400 rpm for 24–96 h (IKA KS 3000 ic control, IKA-Werke, Staufen, Germany). After 24 h, 48 h and 72 h, the mixtures were visually inspected for remaining solids and the solids were filtered off. The concentrations in the resulting saturated solutions were quantified by isocratic HPLC using calibration with external standard. If equilibrium was not reached after 72 h, solubility of a further sample was determined after 96 h. For calibration, a stock solution of 10 mM of the test compounds in DMSO was prepared and the stock solution was diluted with ACN to suitable concentrations. The AUC at the wavelength maxima was used for quantification.

Data set [6] can be described thus: Cytotoxicity, cell viability by tetrazolium dye assay (XTT assay). The data set is classed as cell-based. The following applies: human, HeLa cells, read-out: Viability of treated HeLa cells relative to control cells. The method, then: To evaluate the applicability of the 2-substituted indole-3-carbonitrile compounds in cell culture experiments, we assessed toxicity of 6f, 6h, 6s and 13b on HeLa cells by viability assays (Table 4).
The inhibitors were added to the cultured cells from stock solutions in DMSO to the desired final concentration. For cytotoxicity assays, HeLa cells were grown in 96-well plates (20,000–30,000 cells per well) and incubated with the test compounds for 3 days before cell viability was evaluated with the help of a tetrazolium dye assay (XTT assay, AppliChem GmbH, Darmstadt, Germany).
A general note: Tetrazolium assays rely on reduction of a dye to a coloured formazan, in cell work by metabolically active cells.

The target of data set [7] is CLK1 (Mus musculus, UniProt P22518). Kind of data set: Protein kinase assay ([γ-33P]-ATP, RS peptide substrate), CLK1. In kind it is biochemical. Particulars: 15 µM ATP. The method, then:
as §1

In data set [8] the target is GSK-3. The data set can be described thus: Protein kinase assay ([γ-33P]-ATP, GS-1 substrate), GSK-3. The following applies: read-out: IC50 GSK3; 15 µM ATP.
The target in data set [9] is CLK3 (Mus musculus, UniProt O35492). The data set can be described thus: Protein kinase assay ([γ-33P]-ATP, RS peptide substrate), CLK3. The following applies: 10 µM compound; read-out: Inhibition at 10 µM CLK3 (class symbol). In kind it is biochemical. The method, then: as §1
Data set [10] addresses DYRK1B (Homo sapiens, UniProt Q9Y463). The data set can be described thus: Protein kinase assay ([γ-33P]-ATP, RS peptide substrate), DYRK1B. In kind it is biochemical. The following applies: 15 µM ATP; read-out: IC50 DYRK 1B. The method, then: as §1
A short description of data set [11]: Kinetic solubility, laser nephelometry. The data set is classed as physicochemical. Particulars: phosphate buffer pH 7.4, nephelometry. As to the method: The kinetic solubility was determined using laser nephelometry. A stock solution of the test compounds in DMSO was prepared and further diluted with DMSO to achieve a dilution series of 8–12 solutions with different concentrations. The DMSO solutions (2 µL) were placed in a row on a 96-well plate and diluted with aqueous phosphate buffer pH 7.4 (198 µL). The well plate was scanned by a nephelometer (Nephelostar Plus, BMG Labtech, Ortenberg, Germany). Unsolved particles scatter the laser light which is detected by the nephelometer. The intensity of the scattered light is proportional to the particle concentration in the suspension. The intensity of the scattered light was plotted versus the concentration to obtain a kick off curve. The concentration at which the compounds began to precipitate was directly read out from the kick off curve.

The target in data set [12] is CLK2 (Mus musculus, UniProt O35491). Kind of data set: Protein kinase assay ([γ-33P]-ATP, RS peptide substrate), CLK2. The data set is classed as biochemical. The following applies: 15 µM ATP. The method, then: as §1
Data set [13] concerns the target CLK4 (Mus musculus, UniProt O35493). Kind of data set: Protein kinase assay ([γ-33P]-ATP, RS peptide substrate), CLK4. The data set is classed as biochemical. Particulars: 15 µM ATP. The method, then:
as §1

The target in data set [14] is T2, DYRK1A. Kind of data set: Ligand-lipophilicity efficiency (pIC50 minus calculated logP). As to the method:
All new compounds were evaluated based on their physicochemical properties regarding Lipinski’s rule of five and the ligand-lipophilicity efficiency (LLE). Both concepts are used to assess the druglikeness of drug development candidates. […] LLE is calculated from pIC50 minus calculated logP [46].

Data set [15] relates to DYRK1A-mediated tau phosphorylation and Aβ production. Set-up: method as in PMID 25556849. The following applies: cellular; cited from earlier work.
Data set [16] concerns DYRK1A. The following applies: read-out: IC50 DYRK1A; cited from earlier work.
The subject of data set [17] is DYRK1B. Also noted: method as in PMID 27766861, PMID 25268714, PMID 25264830. The following applies: cited from earlier work.

A value given as a limit tells only on which side of the number the result lay.

Sequence of CLK4 (O35493 whole entry): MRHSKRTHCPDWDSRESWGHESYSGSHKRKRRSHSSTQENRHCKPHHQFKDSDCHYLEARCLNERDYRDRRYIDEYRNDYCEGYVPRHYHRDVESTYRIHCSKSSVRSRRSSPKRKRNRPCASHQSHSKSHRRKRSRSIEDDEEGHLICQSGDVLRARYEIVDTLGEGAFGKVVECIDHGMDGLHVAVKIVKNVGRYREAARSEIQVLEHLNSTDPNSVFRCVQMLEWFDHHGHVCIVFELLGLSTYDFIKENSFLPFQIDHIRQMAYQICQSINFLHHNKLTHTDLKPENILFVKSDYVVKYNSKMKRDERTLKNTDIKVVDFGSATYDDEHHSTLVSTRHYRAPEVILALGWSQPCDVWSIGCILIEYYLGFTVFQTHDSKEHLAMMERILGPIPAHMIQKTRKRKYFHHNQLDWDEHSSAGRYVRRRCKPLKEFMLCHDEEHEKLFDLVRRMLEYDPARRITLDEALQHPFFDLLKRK
Sequence of CLK3 (O35492 whole entry): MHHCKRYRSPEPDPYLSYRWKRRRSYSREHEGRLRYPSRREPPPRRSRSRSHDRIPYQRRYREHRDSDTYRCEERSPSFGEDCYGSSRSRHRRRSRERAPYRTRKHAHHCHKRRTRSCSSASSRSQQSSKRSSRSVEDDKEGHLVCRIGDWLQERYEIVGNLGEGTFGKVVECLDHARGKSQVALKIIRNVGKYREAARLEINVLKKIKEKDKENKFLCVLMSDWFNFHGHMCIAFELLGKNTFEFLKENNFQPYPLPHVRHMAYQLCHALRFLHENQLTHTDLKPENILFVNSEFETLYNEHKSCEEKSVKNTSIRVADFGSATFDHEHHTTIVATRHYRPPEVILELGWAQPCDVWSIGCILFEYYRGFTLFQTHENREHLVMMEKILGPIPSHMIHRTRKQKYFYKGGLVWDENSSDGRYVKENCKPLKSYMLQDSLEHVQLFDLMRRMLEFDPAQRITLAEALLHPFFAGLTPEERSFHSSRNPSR
Sequence of CLK1 (P22518 whole entry): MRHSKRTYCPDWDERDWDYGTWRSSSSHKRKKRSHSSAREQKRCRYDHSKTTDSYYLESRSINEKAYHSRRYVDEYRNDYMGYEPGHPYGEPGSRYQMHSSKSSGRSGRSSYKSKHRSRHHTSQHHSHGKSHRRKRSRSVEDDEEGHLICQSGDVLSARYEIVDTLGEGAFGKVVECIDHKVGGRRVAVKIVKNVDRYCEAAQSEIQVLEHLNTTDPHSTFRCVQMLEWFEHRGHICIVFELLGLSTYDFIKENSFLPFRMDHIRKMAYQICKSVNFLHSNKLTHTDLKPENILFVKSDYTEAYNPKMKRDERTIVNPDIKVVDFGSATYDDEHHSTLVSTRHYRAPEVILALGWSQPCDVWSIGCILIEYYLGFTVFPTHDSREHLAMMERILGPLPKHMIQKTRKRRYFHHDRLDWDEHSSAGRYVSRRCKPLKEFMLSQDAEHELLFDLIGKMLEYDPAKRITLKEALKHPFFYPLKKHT
Sequence of CLK2 (O35491 whole entry): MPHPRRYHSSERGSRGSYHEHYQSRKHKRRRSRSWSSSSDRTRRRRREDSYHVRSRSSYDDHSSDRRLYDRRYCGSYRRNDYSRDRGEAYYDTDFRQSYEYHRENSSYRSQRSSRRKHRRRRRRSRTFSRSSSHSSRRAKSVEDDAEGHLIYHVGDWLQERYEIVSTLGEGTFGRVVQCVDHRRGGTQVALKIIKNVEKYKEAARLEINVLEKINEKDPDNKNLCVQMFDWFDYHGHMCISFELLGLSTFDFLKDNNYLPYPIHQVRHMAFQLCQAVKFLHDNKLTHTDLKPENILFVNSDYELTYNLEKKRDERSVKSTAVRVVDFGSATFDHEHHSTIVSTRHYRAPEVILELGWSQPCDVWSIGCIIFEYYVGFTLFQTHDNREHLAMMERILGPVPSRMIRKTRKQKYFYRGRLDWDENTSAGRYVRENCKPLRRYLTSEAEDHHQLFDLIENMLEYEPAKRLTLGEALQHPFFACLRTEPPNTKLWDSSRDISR
Sequence of DYRK1B (Q9Y463 whole entry): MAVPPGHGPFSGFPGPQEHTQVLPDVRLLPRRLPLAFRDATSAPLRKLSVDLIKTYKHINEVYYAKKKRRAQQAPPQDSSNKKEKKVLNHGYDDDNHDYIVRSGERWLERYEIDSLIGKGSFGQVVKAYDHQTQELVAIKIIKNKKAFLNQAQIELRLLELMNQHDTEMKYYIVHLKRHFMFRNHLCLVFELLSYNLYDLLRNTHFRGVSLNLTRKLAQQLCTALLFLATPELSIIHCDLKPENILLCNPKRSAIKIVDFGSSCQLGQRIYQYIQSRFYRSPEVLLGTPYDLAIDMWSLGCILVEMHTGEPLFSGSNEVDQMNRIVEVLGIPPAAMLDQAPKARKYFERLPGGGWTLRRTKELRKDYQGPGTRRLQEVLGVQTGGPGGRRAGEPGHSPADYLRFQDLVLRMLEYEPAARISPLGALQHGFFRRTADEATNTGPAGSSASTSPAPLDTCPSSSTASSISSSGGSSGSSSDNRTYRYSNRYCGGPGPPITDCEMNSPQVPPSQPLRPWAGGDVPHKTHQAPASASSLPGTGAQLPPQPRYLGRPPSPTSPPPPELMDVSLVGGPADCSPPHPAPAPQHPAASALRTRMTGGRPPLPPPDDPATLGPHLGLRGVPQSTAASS

The inhibition is the percentage by which the read-out fell short of the control. One may read the IC50 as the concentration that inhibits the measured activity by half. One may read the viability as a read-out of living cells in per cent, often relative to untreated cells. Turning to `N#Cc1c(C2CCCC2)[nH]c2c(I)cccc12` [Compound 6s, 2-Cyclopentyl-7-iodo-1H-indole-3-carbonitrile], the inhibition at 10 µM in data set [1], in [4] and in data set [9] was < 20% each time. Moreover, the IC50 in data set [2] was 70 nM; in data set [3] it was 520 nM; in [7], 120 nM; in data set [8], > 10000 nM; in [10], 600 nM; in data set [12] it was 1000 nM. Further, in [13], the IC50 stood at 100 nM. Besides, the “Sexp., therm., pH 7.4” value in data set [5] is recorded as <0.5 µM. In addition, in data set [6] (1 µM), the viability at 3 days, 1 µM turned out to be 99%. Further, the viability at 3 days, 3 µM in [6] (3 µM) turned out to be 100%. The viability at 3 days, 10 µM in data set [6] (10 µM) is 82%. Further, the “Sexp., kin., pH 7.4” value in data set [11] is listed as 16.2 (15.2–17.3) µM. For the same molecule, the LLE in [14] (Table S2) and in data set [14] (pIC50 (DYRK1A) minus calculated logP) was 2.78 each time.
In the case of `COC(=N)c1nc2ccc3ncnc(Nc4ccc(OC)cc4F)c3c2s1` [EHT 5372], the IC50 in data set [15] was 1060 to 1170 nM; in data set [16], 0.22 nM; in data set [17] it was […].

The values above are taken from PMC6017736, “Indole-3-Carbonitriles as DYRK1A Inhibitors by Fragment-Based Drug Design” (Molecules : A Journal of Synthetic Chemistry and Natural …, 2018).
